PMC3921447, “Homologous and heterologous desensitization of guanylyl cyclase-B signaling in GH3 somatolactotropes” (Cell and Tissue Research, 2013)

Experiments:
GC-B [1] = target: T1, GC-B (Rattus norvegicus, UniProt P16067); experiment: Effect of protein phosphatase inhibitors on rapid homologous desensitization of CNP-stimulated cGMP accumulation in GH3 cells; format: cell-based; details: 100 nM CNP, 1 mM IBMX; 30 min pre-treatment with 100 nM OA, 1 nM cypermethrin or 1 mM Na3VO4; control = CNP alone; n = 3
T1 construct: rapid homologous desensitization of endogenous GC-B receptors in GH3 cells; endogenous in cells; host or cells: GH3 rat somatolactotrope cells
T1 sequence (P16067 17-1047): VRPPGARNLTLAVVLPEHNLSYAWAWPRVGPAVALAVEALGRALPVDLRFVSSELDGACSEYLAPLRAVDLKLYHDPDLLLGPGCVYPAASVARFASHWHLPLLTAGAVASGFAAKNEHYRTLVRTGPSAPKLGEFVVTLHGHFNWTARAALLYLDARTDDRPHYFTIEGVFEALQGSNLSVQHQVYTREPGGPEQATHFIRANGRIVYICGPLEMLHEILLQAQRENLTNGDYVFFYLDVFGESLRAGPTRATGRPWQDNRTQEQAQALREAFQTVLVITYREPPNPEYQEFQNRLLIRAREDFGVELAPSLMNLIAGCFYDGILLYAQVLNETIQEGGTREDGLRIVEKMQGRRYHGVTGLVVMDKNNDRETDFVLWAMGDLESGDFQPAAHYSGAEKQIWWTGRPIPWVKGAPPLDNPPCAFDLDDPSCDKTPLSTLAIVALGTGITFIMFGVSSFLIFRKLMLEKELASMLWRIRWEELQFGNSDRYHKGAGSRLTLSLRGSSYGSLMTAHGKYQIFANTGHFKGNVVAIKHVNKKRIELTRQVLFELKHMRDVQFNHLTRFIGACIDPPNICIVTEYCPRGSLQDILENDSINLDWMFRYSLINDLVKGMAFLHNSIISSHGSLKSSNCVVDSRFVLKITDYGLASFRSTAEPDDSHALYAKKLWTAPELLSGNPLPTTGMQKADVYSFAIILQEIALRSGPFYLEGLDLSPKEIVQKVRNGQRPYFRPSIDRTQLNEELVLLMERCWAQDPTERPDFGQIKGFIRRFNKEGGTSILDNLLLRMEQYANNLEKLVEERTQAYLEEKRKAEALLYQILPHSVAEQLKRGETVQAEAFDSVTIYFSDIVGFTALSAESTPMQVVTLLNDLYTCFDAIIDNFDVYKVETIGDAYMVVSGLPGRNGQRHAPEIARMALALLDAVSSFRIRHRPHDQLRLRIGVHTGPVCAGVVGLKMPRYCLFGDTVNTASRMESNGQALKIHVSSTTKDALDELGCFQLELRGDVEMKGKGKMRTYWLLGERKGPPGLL
Experimental: Fig. 2 Rapid homologous desensitization of CNP-dependent but not ANP-dependent cGMP accumulation in GH3 cells. Cells were treated with PSS containing either (a) 100 nM CNP or (b) 100 nM ANP for 0–15 min in the presence of 1 mM IBMX.
Similar short time-courses were performed, except that some cells were pre-treated with 100 nM okadaic acid (OA, a PP2A inhibitor), 1 nM cypermethrin (a PP2B inhibitor), or 1 mM sodium orthovanadate (Na3VO4, a protein tyrosine phosphatase inhibitor) for 30 min prior to CNP treatment (Fig. 2c).

GC-B [2] = target: T1, GC-B; experiment: Agonist-induced GC-B internalization by confocal immunofluorescence in GH3 cells; format: cell-based; details: 100 nM CNP, 0-4 h; n = 3; Fig. 5a-c
Experimental: GH3 cells were mounted on poly-L-lysine-coated coverslips and treated with either 0 or 100nM ANP or CNP in PSS during the indicated time points. Following treatment, cells were fixed with 4 % (w/v) formaldehyde for 10 min at room temperature and permeabilized with buffer (1 % [v/v] Tween-20 in 50 ml phosphate-buffered saline [PBS]) before incubation for 10 min at room temperature. Cells were then blocked with […] sodium azide dissolved in 92 % PBS, 3 % FCS and 5 % Tween-20 (v/v) for 20 min at room temperature, washed, then exposed to 1:200 diluted primary antibody solution (GC-A or GC-B, plus 0.1 % FCS and 0.1 % Tween-20) for 16 h at 4 °C. […] Following three PBS washes and a final 5-min PBS immersion at room temperature, the slides were mounted in Vectorshield (Vector Laboratories, Peterborough, UK) on standard VWR (VWR International, Leicestershire, UK) slides ready for analysis. A Leica SPS confocal scanning laser microscope was used to capture the staining, which was analyzed with Leica SPS software (Leica Microsystems, Milton Keynes, UK). […]
Fig. 5 Lack of ligand-dependent internalization of GC-B or GC-A in GH3 somatolactotrope cells. […] GC-A and GC-B immunoreactivity was detected by using Alexa488-conjugated secondary antibodies (green), whereas Alexa635-conjugated phalloidin was used to detect the actin cytoskeleton (red). […]

GC-A and GC-B receptors = details: prolonged exposure; ref Fan et al. [2005]; Dickey et al. [2011]; cited from earlier work
Source text: Pharmacological regulation of the GC-B receptor has been elegantly described through many studies by Potter and Hunter ([1998a], [1999]) who have shown that dephosphorylation of specific serine and threonine residues of the GC-B receptor leads to rapid homologous desensitization. In keeping with the extensive literature describing the regulation of GC-A receptors (Potter et al. [2006]), enhancement of protein kinase C (PKC) activity leads to heterologous desensitization (Potter and Hunter [2000]).

CC[C@H](C)[C@@H]1NC(=O)[C@H](CCCNC(=N)N)NC(=O)[C@H](CC(=O)O)NC(=O)[C@H](CC(C)C)NC(=O)[C@H](CCCCN)NC(=O)[C@H](CC(C)C)NC(=O)CNC(=O)[C@H](Cc2ccccc2)NC(=O)[C@@H](NC(=O)CNC(=O)[C@H](CCCCN)NC(=O)[C@H](CO)NC(=O)[C@H](CC(C)C)NC(=O)CN)CSSC[C@@H](C(=O)O)NC(=O)CNC(=O)[C@H](CC(C)C)NC(=O)CNC(=O)[C@H](CO)NC(=O)[C@H](CCSC)NC(=O)[C@H](CO)NC(=O)CNC1=O [CNP, C-type natriuretic peptide]
rate of cGMP accumulation from 5 to 15 min (desensitization) (GC-B [1]): underwent desensitization as shown by the failure to maintain the initial rate of cGMP accumulation | GC-B internalization (GC-B [2]): did not demonstrate any observable GC-B or GC-A internalization | agonist-induced internalization (GC-A and GC-B receptors): does not appear to cause agonist-induced internalization
